Measurements taken from patent US10322191B2, “Targeted conjugates and particles and formulations thereof” (TARVEDA THERAPEUTICS, INC., priority 2014, dated 2019).
Read-outs that look alike come from different tables or passages of the source. Numbered stars: 1 amine (or outer) side, 2 acyl side, 3 side chain; on linkers, the order of the positions; unused ones are H or OH. Bridge positions count the residues as written; N and C are the ends. Square brackets hold non-standard residues; d marks the D form. Peptide text beside a SMILES is read from it. * marks the point of attachment. X1 = COc1cc2cc(c1Cl)N(C)C(=O)C[C@H](OC(=O)[C@H](C)N(C)C(=O)CCS*)[C@]1(C)O[C@H]1[C@H](C)[C@@H]1C[C@@](O)(NC(=O)O1)[C@H](OC)/C=C/C=C(\C)C2; N(3-sulfanylpropyl)dPhe = O=C([C@@H](Cc1ccccc1)N(CCCS[*:3])[*:1])[*:2]

How the values were obtained:
[1] = system: NCI-H524 (ATCC) human lung cancer cells; format: cell-based; conditions: Table 15
In short: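 NCI-H524 cells at 5,000/well were exposed to conjugate for 2 h from 20 μM top dose (ten-point, three-fold dilutions), washed, then grown a further 70 h. For competition, cells were pretreated 30 min with 100 μM octreotide. CellTiter Glo readout; % inhibition vs vehicle; four-parameter IC50.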

[2] = system: NCI-H69 SCLC (small cell lung cancer) tumors; assay: H69 tumor DM-1 levels by LC/MS-MS; format: in vivo, mice; conditions: 24 hour time point; dosed at 1 mg/kg (conjugates, nanoparticles) or 0.4 mg/kg for DM-1
Procedure: To examine the ability of conjugates of the present invention to accumulate in tumors, a murine cancer model was used. All mice were treated in accordance with the OLAW Public Health Service Policy on Human Care and Use of Laboratory Animals and the ILAR Guide for the Care and Use of Laboratory Animals. All in vivo studies were conducted following the protocols approved by the Blend Therapeutics Institutional Animal Care and Use Committee. Animals were inoculated with 2.5×10{circumflex over (0)}6 NCI-H69 SCLC (small cell lung cancer) cells in 1:1 RPMI 1640 (Invitrogen, Carlsbad, Calif.)/Matrigel® (BD Biosciences, San Jose, Calif.) via subcutaneous injection to the right flank. Tumors were allowed to reach an approximate volume of ˜500 mm3. Animals were then randomized into treatment groups of 3 animals per time point and were dosed at 1 mg/kg (10% propylene glycol in water for injection for free conjugates, or 10% sucrose for nanoparticles), or 0.4 mg/kg for DM-1 (10% propylene glycol in water for injection). The 24 hour time point was used as a benchmark across conjugates.
Tumor DM-1 levels were determined by liquid chromatography mass spectrometry (LC/MS-MS). Four volumes of 5 mM 6-maleimidohexanoic acid to 1 part tumor v/w was added and homogenized for about 10-15 seconds with a handheld homogenizer. 10 μL of 500 mM Tris(2-carboxyethyl)phosphine was added to 100 uL of tumor homogenate, mixed well and incubated at room temperature for about 5-15 min. 200-300 uL of acetonitrile was used to precipitate proteins in tumor homogenate, samples were centrifuged for 5 min, and supernatant was injected onto LC/MS-MS system for DM-1 analysis.

[3] = target: SSTR2 (Homo sapiens, UniProt P30874); assay: Radioligand-receptor binding assay, [125I] labeled somatostatin, membranes from SSTR2 expressing CHO-K1 cells; parameters: host or cells: CHO-K1
Procedure: Two conjugates were assessed in an in vitro assay evaluating binding to the somatostatin receptor 2 (SSTR2). A radioligand-receptor binding assay was conducted at Eurofins Panlabs (Taiwan) to determine the affinity of conjugates described herein to the SSTR2. The assay measures binding of radiolabeled ligand, [^125I] labeled somatostatin, to human SSTR2 using membrane preparations from SSTR2 expressing CHO-K1 cells. Membranes were incubated with radiolabeled somatostatin (0.03 nM) in the presence of conjugate/compound starting at a dose of 10 uM using 6× serial dilutions to obtain a 10-pt curve. After a four-hour incubation, membranes were filtered and washed 3× and counted to determine the remaining [^125I] somatostatin bound to the receptor. IC50 values were determined by a non-linear, least squares regression analysis using MathIQ™ (ID Business Solutions Ltd., UK). The Ki values were calculated using the equation of Cheng and Prusoff (Cheng and Prusoff, Biochem. Pharmacol. 22: 3099-3108, 1973) using the observed IC50 of the tested conjugate/compound, the concentration of radioligand employed in the assay, and the historical values for the KD of the ligand obtained at Eurofins.

[4] = treated 2 hours, further incubated 70 hours, read-out: H524 IC50
[5] = read-out: H524 IC50+ 100 uM octreotide, 100 μM octreotide for 30 min, then conjugate 2 hours, 70 hours incubation

SSTR2, sequence (P30874 whole entry): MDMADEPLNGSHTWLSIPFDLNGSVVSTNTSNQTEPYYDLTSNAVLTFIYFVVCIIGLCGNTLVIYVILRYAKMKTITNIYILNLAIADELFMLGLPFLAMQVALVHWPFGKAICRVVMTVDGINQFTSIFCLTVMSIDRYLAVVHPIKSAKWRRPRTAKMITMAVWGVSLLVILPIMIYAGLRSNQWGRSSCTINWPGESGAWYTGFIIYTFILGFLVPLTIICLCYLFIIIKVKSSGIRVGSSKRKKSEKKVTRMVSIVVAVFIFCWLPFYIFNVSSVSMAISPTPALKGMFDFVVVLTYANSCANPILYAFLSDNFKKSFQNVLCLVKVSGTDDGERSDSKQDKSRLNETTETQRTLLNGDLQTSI

With COc1cc2cc(c1Cl)N(C)C(=O)C[C@H](OC(=O)[C@H](C)N(C)C(=O)CCSSCCNC(=O)CC[C@H]1C(=O)N[C@@H](Cc3ccc(O)cc3)C(=O)N[C@H](Cc3c[nH]c4ccccc34)C(=O)N[C@@H](CCCCN)C(=O)N[C@@H]([C@@H](C)O)C(=O)N[C@@H](Cc3ccccc3)C(=O)N1C)[C@]1(C)O[C@H]1[C@H](C)[C@@H]1C[C@@](O)(NC(=O)O1)[C@H](OC)/C=C/C=C(\C)C2 [Conjugate 14] the IC50 [1, 4] was 0.298 µM, the IC50 [1, 5] was 0.877 µM and the “H69 tumor DM-1 levels” value [2] was 70.1 nM.

For COc1cc2cc(c1Cl)N(C)C(=O)C[C@H](OC(=O)[C@H](C)N(C)C(=O)CCSSC[C@H](NC(=O)CC[C@H]1C(=O)N[C@@H](Cc3ccc(O)cc3)C(=O)N[C@H](Cc3c[nH]c4ccccc34)C(=O)N[C@@H](CCCCN)C(=O)N[C@@H]([C@@H](C)O)C(=O)N[C@@H](Cc3ccccc3)C(=O)N1C)C(=O)NC(C)(C)CC(C)(C)C)[C@]1(C)O[C@H]1[C@H](C)[C@@H]1C[C@@](O)(NC(=O)O1)[C@H](OC)/C=C/C=C(\C)C2 [Conjugate 16], the IC50 [1, 4] was 0.223 µM, the IC50 [1, 5] was 0.398 µM and the “H69 tumor DM-1 levels” value [2] was 96.4 nM.

COc1cc2cc(c1Cl)N(C)C(=O)C[C@H](OC(=O)[C@H](C)N(C)C(=O)CCSSCCC(=O)NCCCOCCOCCOCCCNC(=O)CC[C@H]1C(=O)N[C@@H](Cc3ccc(O)cc3)C(=O)N[C@H](Cc3c[nH]c4ccccc34)C(=O)N[C@@H](CCCCN)C(=O)N[C@@H]([C@@H](C)O)C(=O)N[C@@H](Cc3ccccc3)C(=O)N1C)[C@]1(C)O[C@H]1[C@H](C)[C@@H]1C[C@@](O)(NC(=O)O1)[C@H](OC)/C=C/C=C(\C)C2 [Conjugate 18] was tested, and the IC50 [1, 4] was 1.48 µM, the IC50 [1, 5] was 2.16 µM and the “H69 tumor DM-1 levels” value [2] was 86.3 nM.

With CCCCN(CCSSCCC(=O)N(C)[C@@H](C)C(=O)O[C@H]1CC(=O)N(C)c2cc(cc(OC)c2Cl)C/C(C)=C/C=C/[C@@H](OC)[C@@]2(O)C[C@H](OC(=O)N2)[C@@H](C)[C@@H]2O[C@@]12C)C(=O)CC[C@H]1C(=O)N[C@@H](Cc2ccc(O)cc2)C(=O)N[C@H](Cc2c[nH]c3ccccc23)C(=O)N[C@@H](CCCCN)C(=O)N[C@@H]([C@@H](C)O)C(=O)N[C@@H](Cc2ccccc2)C(=O)N1C [Conjugate 22] the IC50 [1, 4] was 0.332 µM, the IC50 [1, 5] was 0.741 µM and the “H69 tumor DM-1 levels” value [2] was 145 nM.

COc1cc2cc(c1Cl)N(C)C(=O)C[C@H](OC(=O)[C@H](C)N(C)C(=O)CCSSCCNC(=O)[C@@H](NC(=O)[C@@H]1CSSC[C@H](NC(=O)[C@H](N)Cc3ccccc3)C(=O)N[C@@H](Cc3ccc(O)cc3)C(=O)N[C@H](Cc3c[nH]c4ccccc34)C(=O)N[C@@H](CCCCN)C(=O)N[C@@H]([C@@H](C)O)C(=O)N1)[C@@H](C)O)[C@]1(C)O[C@H]1[C@H](C)[C@@H]1C[C@@](O)(NC(=O)O1)[C@H](OC)/C=C/C=C(\C)C2 [Conjugate 35] was tested, and the IC50 [1, 4] was 0.253 µM, the IC50 [1, 5] was 1 µM and the “H69 tumor DM-1 levels” value [2] was 23.2 nM.

With CCCCCCCCN[C@H](Cc1ccccc1)C(=O)N[C@H]1CSSC[C@@H](C(=O)N[C@H](C(=O)NCCSSCCC(=O)N(C)[C@@H](C)C(=O)O[C@H]2CC(=O)N(C)c3cc(cc(OC)c3Cl)C/C(C)=C/C=C/[C@@H](OC)[C@@]3(O)C[C@H](OC(=O)N3)[C@@H](C)[C@@H]3O[C@@]23C)[C@@H](C)O)NC(=O)[C@H]([C@@H](C)O)NC(=O)[C@H](CCCCN)NC(=O)[C@@H](Cc2c[nH]c3ccccc23)NC(=O)[C@H](Cc2ccc(O)cc2)NC1=O [Conjugate 55] the IC50 [1, 4] was 0.047 µM, the IC50 [1, 5] was 0.395 µM and the “H69 tumor DM-1 levels” value [2] was 95.3 nM.

With COc1cc2cc(c1Cl)N(C)C(=O)C[C@H](OC(=O)[C@H](C)N(C)C(=O)CCSSC[C@H](NC(=O)[C@@H]1CSSC[C@H](NC(=O)[C@H](N)Cc3ccccc3)C(=O)N[C@@H](Cc3ccc(O)cc3)C(=O)N[C@H](Cc3c[nH]c4ccccc34)C(=O)N[C@@H](CCCCN)C(=O)N[C@@H]([C@@H](C)O)C(=O)N1)C(N)=O)[C@]1(C)O[C@H]1[C@H](C)[C@@H]1C[C@@](O)(NC(=O)O1)[C@H](OC)/C=C/C=C(\C)C2 [Conjugate 57] the IC50 [1, 4] was 0.136 µM, the IC50 [1, 5] was 1.65 µM and the “H69 tumor DM-1 levels” value [2] was 243 nM.

Work on COc1cc2cc(c1Cl)N(C)C(=O)C[C@H](OC(=O)[C@H](C)N(C)C(=O)CCSSCCCN[C@H](Cc1ccccc1)C(=O)N[C@H]1CSSC[C@@H](C(=O)N[C@@H](Cc3c[nH]c4ccccc34)C(N)=O)NC(=O)[C@H](C(C)C)NC(=O)[C@H](CCCCN)NC(=O)[C@@H](Cc3c[nH]c4ccccc34)NC(=O)[C@H](Cc3ccc(O)cc3)NC1=O)[C@]1(C)O[C@H]1[C@H](C)[C@@H]1C[C@@](O)(NC(=O)O1)[C@H](OC)/C=C/C=C(\C)C2 [Conjugate 78] (H-[N(3-sulfanylpropyl)dPhe](X1)CY[dW]KVCW-NH2; disulfide 2-7) yielded an IC50 [1, 4] of 0.124 µM, an IC50 [1, 5] of 0.365 µM and a Ki [3] of 0.00019 µM. For the same compound, the “H69 tumor DM-1 levels” value [2] was 36.2 nM.

In the case of COc1cc2cc(c1Cl)N(C)C(=O)C[C@H](OC(=O)[C@H](C)N(C)C(=O)CCSSCCCN[C@H](Cc1ccccc1)C(=O)N[C@H]1CSSC[C@@H](C(=O)N[C@H](C(=O)O)[C@@H](C)O)NC(=O)[C@H]([C@@H](C)O)NC(=O)[C@H](CCCCN)NC(=O)[C@@H](Cc3c[nH]c4ccccc34)NC(=O)[C@H](Cc3ccc(O)cc3)NC1=O)[C@]1(C)O[C@H]1[C@H](C)[C@@H]1C[C@@](O)(NC(=O)O1)[C@H](OC)/C=C/C=C(\C)C2 [Conjugate 80], the IC50 [1, 4] is reported as 0.152 µM, the IC50 [1, 5] is reported as 0.157 µM and the “H69 tumor DM-1 levels” value [2] is reported as 91.2 nM.

For COc1cc2cc(c1Cl)N(C)C(=O)C[C@H](OC(=O)[C@H](C)N(C)C(=O)CCSSCCOc1ccc(C[C@@H](N)C(=O)N[C@H]3CSSC[C@@H](C(=O)N[C@H](C(=O)O)[C@@H](C)O)NC(=O)[C@H]([C@@H](C)O)NC(=O)[C@H](CCCCN)NC(=O)[C@@H](Cc4c[nH]c5ccccc45)NC(=O)[C@H](Cc4ccc(O)cc4)NC3=O)cc1)[C@]1(C)O[C@H]1[C@H](C)[C@@H]1C[C@@](O)(NC(=O)O1)[C@H](OC)/C=C/C=C(\C)C2 [Conjugate 111], the IC50 [1, 4] was 0.123 µM, the IC50 [1, 5] was 0.742 µM and the “H69 tumor DM-1 levels” value [2] was 82.6 nM.

In the case of COc1cc2cc(c1Cl)N(C)C(=O)C[C@H](OC(=O)[C@H](C)N(C)C(=O)CCSSCCC(=O)NCc1ccc(C[C@@H](N)C(=O)N[C@H]3CSSC[C@@H](C(=O)N[C@H](C(=O)O)[C@@H](C)O)NC(=O)[C@H]([C@@H](C)O)NC(=O)[C@H](CCCCN)NC(=O)[C@@H](Cc4c[nH]c5ccccc45)NC(=O)[C@H](Cc4ccc(O)cc4)NC3=O)cc1)[C@]1(C)O[C@H]1[C@H](C)[C@@H]1C[C@@](O)(NC(=O)O1)[C@H](OC)/C=C/C=C(\C)C2 [Conjugate 115], the IC50 [1, 4] is reported as 0.327 µM, the IC50 [1, 5] is reported as 1.5 µM and the “H69 tumor DM-1 levels” value [2] is reported as 37.1 nM.

In the case of COc1cc2cc(c1Cl)N(C)C(=O)C[C@H](OC(=O)[C@H](C)N(C)C(=O)CCS)[C@]1(C)O[C@H]1[C@H](C)[C@@H]1C[C@@](O)(NC(=O)O1)[C@H](OC)/C=C/C=C(\C)C2 [DM-1, reference compound], the IC50 [1, 4] is reported as 0.09 µM, the IC50 [1, 5] is reported as 0.09 µM and the “H69 tumor DM-1 levels” value [2] is reported as 31.6 nM.
